In patent US9034873B2, “Pyridazine and pyrrole compounds, processes for obtaining them and uses” (Centre National de la Recherche Scientifique (C.N.R.S.), priority 2006, dated 2015):
In brackets after ≈: the same amount, converted by molar mass. Like-named read-outs stand apart in the source and are kept apart here.

Legend:
[1] = system: Leishmania mexicana amastigotes; test: Activity against Leishmania mexicana, amastigotes; assay type: cell-based; conditions: amastigote stage; for IC50: Leishmania mexicana, read-out: Activity against Leishmania mexicana (IC50 μg/ml) amastigotes
Caco (colon) = test: IC50 of the referent molecules on Caco (colon) cells; assay type: cell-based
Fibroblast (skin) = test: IC50 of the referent molecules on Fibroblast (skin) cells; assay type: cell-based
Sub7 (liver) = test: IC50 of the referent molecules on Sub7 (liver) cells; assay type: cell-based
Leishmania mexicana = test: Parasitology: activity against Leishmania mexicana; assay type: cell-based
Aspergillus fumigatus = test: Parasitology: activity against Aspergillus fumigatus; assay type: cell-based; conditions: for IC80: IC80 stated in the cell
Candida albicans = test: Parasitology: activity against Candida albicans; assay type: cell-based
[2] = system: KB, Caco, Huh7 and fibroblast cells; test: Cancer cell model: in vitro test on KB, Caco, Huh7 and fibroblast cells; assay type: cell-based
Cytotoxicity on KB cells = assay type: cell-based; conditions: human
tonB protein = tonB protein (Escherichia coli, UniProt P02929); test: Effect on tonB protein (iron transport used for bacterial growth); conditions: tonB protein involved in the iron transport process used for bacterial growth
[3] = system: Leishmania mexicana promastigotes; test: Activity against Leishmania mexicana, promastigotes; assay type: cell-based; conditions: for IC50: Leishmania mexicana, read-out: Activity against Leishmania mexicana (IC50 μg/ml) promastigotes, promastigote stage
[4] = 24 h, read-out: IC50 μM Caco (colon) 24 h
[5] = 48 h, read-out: IC50 μM Caco (colon) 48 h
[6] = 24 h, read-out: IC50 μM Sub7 (liver) 24 h
[7] = 48 h, read-out: IC50 μM Sub7 (liver) 48 h
[8] = read-out: Parasitology IC50 or 80 Leishmania mexicana μM
[9] = read-out: Parasitology IC50 or 80 Leishmania mexicana μg/mL
[10] = read-out: Parasitology IC50 or 80 Candida albicans μM
[11] = read-out: Parasitology IC50 or 80 Candida albicans μg/mL
[12] = KB cells, read-out: KB cells Cytotoxicity IC50 μM
[13] = Fibroblast, 24 h, read-out: IC50 μM Fibroblast (skin) 24 h
[14] = Fibroblast, 48 h, read-out: IC50 μM Fibroblast (skin) 48 H

Chain of tonB protein (P02929 whole entry): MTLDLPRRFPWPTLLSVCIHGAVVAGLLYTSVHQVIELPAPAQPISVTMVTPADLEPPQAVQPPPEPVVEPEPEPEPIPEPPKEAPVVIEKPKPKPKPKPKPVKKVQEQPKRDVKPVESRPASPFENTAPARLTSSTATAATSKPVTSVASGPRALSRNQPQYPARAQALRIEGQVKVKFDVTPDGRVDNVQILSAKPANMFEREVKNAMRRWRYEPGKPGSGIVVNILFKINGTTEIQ

C[C@@H]1[C@H](O)[C@@H](C)/C=C/C=C/C=C/C=C/C=C/C=C/C=C/[C@H](O[C@@H]2O[C@H](C)[C@@H](O)[C@H](N)[C@@H]2O)C[C@@H]2O[C@](O)(C[C@@H](O)C[C@@H](O)[C@H](O)CC[C@@H](O)C[C@@H](O)CC(=O)O[C@H]1C)C[C@H](O)[C@H]2C(=O)O [Amphotericin B]
Activity against Leishmania mexicana (IC50 μg/ml) amastigotes [1]: 0.47 ± 0.05 µg/mL

O=c1[nH]cc(F)c(=O)[nH]1 [Compound 5FU, 5FU]
IC50 (Caco (colon); [4]): 0.5 µM
IC50 (Caco (colon); [5]): 0.5 µM
IC50 (Fibroblast (skin); 48 H, read-out: IC50 μM Fibroblast (skin) 48 H): > 25 µM
IC50 (Fibroblast (skin); 24 h, read-out: IC50 μM Fibroblast (skin) 24 h): > 25 µM
IC50 (Sub7 (liver); [6]): > 25 µM
IC50 (Sub7 (liver); [7]): > 25 µM

c1ccc(-c2ccc(Oc3ccc(-c4ccccn4)nn3)nn2)nc1 [Compound 9, di(6-pyridin-2-yl)pyridazine ether]
IC50 (Leishmania mexicana; [8]): > 100 µM
IC50 (Leishmania mexicana; [9]): > 22.8 µg/mL
IC50 (Aspergillus fumigatus; cell does not say IC50 or IC80, read-out: Parasitology IC50 or 80 Aspergillus fumigatus μM): > 100 µM
IC50 (Aspergillus fumigatus; cell does not say IC50 or IC80, read-out: Parasitology IC50 or 80 Aspergillus fumigatus μg/mL): > 22.8 µg/mL
IC50 (Candida albicans; [10]): > 100 µM
IC50 (Candida albicans; [11]): > 22.8 µg/mL

S=c1ccc(-c2ccccn2)n[nH]1 [Compound 10, 6-(pyridin-2-yl)-2H-pyridazine-3-thione]
cytotoxic activity in a cancer cell model [2]: very high cytotoxic activity

c1ccc(-c2ccc(Sc3ccc(-c4ccccn4)nn3)nn2)nc1 [Compound 11, di(6-pyridin-2-yl)pyridazine thioether]
IC50 (Leishmania mexicana; [8]): 3 µM
IC50 (Leishmania mexicana; [9]): 8.73 µg/mL
cytotoxic activity in a cancer cell model [2]: very high cytotoxic activity
IC50 (Candida albicans; [10]): 99 µM
IC50 (Candida albicans; [11]): 24.2 µg/mL

C=C(OCC)c1ccc(-c2ccc(C(=C)OCC)nn2)nn1 [Compound 24, 6,6′-di(1-ethoxyvinyl)-3,3′-bipyridazine]
IC50 (Cytotoxicity on KB cells; KB cancer cells, text of Example 2, read-out: cytotoxic potential on KB cancer cells, IC50): 0.3 µg/mL
cytotoxic activity in a cancer cell model [2]: very high cytotoxic activity
effect on the tonB protein (tonB protein): affects the tonB protein

c1ccc(-c2ccc(-c3cccc(-c4ccc(-c5ccccn5)nn4)n3)nn2)nc1 [Compound 33, 2,6-bis[6-(pyridin-2-yl)pyridazin-3-yl]-pyridine]
IC50 (Cytotoxicity on KB cells; [12]): 6.27 µM
IC50 (Cytotoxicity on KB cells; KB cells, read-out: KB cells Cytotoxicity IC50 μg/mL): 1.81 µg/mL
IC50 (Leishmania mexicana; [8]): 0.19 µM
IC50 (Leishmania mexicana; [9]): 0.05 µg/mL
IC80 (Aspergillus fumigatus; read-out: Aspergillus fumigatus IC80 μM): 32 µM
IC80 (Aspergillus fumigatus; read-out: Aspergillus fumigatus IC80 μg/mL): 9.26 µg/mL
IC50 (Candida albicans; [10]): 6.4 µM
IC50 (Candida albicans; [11]): 1.85 µg/mL

O=c1ccc(-c2cccc(-c3ccc(=O)[nH]n3)n2)n[nH]1 [Compound 36, 2,6-bis(3-oxo-2H-pyridazin-6-yl)pyridine]
IC50 (Cytotoxicity on KB cells; [12]): 2.6 µM
IC50 (Leishmania mexicana; [8]): 41 µM
IC50 (Leishmania mexicana; [9]): 11 µg/mL
IC50 (Candida albicans; [10]): > 100 µM
IC50 (Candida albicans; [11]): > 26.7 µg/mL

Cc1cccc(-c2ccc(-c3cccc(-c4ccc(-c5cccc(C)n5)nn4)n3)nn2)n1 [Compound 49, 2,6-bis[6-(6-methylpyridin-2-yl)pyridazin-3-yl)pyridine]
cytotoxic activity in a cancer cell model [2]: very high cytotoxic activity

O=C(O)c1cccc(-c2ccc(-c3cccc(-c4ccc(-c5cccc(C(=O)O)n5)nn4)n3)nn2)n1 [Compound 50, 2,6-bis[3-(2-carboxypyridin-6-yl)pyridazin-6-yl]pyridine]
IC50 (Leishmania mexicana; [8]): 8 µM
IC50 (Leishmania mexicana; [9]): 3.8 µg/mL
cytotoxic activity in a cancer cell model [2]: very high cytotoxic activity
IC50 (Candida albicans; [10]): 63 µM
IC50 (Candida albicans; [11]): 30.1 µg/mL

c1ccc(-c2ccc(-c3ccc4ccc5ccc(-c6ccc(-c7ccccn7)nn6)nc5c4n3)nn2)nc1 [Compound 66, 2,9-bis[6-(pyridin-2-yl)pyridazin-3-yl][1,10]phenanthroline]
IC50 (Leishmania mexicana; [8]): 16 µM
IC50 (Leishmania mexicana; [9]): 7.84 µg/mL
IC50 (Candida albicans; [10]): > 100 µM
IC50 (Candida albicans; [11]): ≥ 49.1 µg/mL

COc1cccc2c1C(=O)c1c(O)c3c(c(O)c1C2=O)C[C@@](O)(C(=O)CO)C[C@@H]3O[C@H]1C[C@H](N)[C@H](O)[C@H](C)O1 [Doxorubicine]
IC50 (Caco (colon); [4]): 1 µM
IC50 (Caco (colon); [5]): 0.06 µM
IC50 (Fibroblast (skin); [13]): 2 µM
IC50 (Fibroblast (skin); [14]): 1 µM
IC50 (Sub7 (liver); [6]): 0.4 µM
IC50 (Sub7 (liver); [7]): 0.04 µM

CC(=O)N1CCN(c2ccc(OCC3COC(Cn4ccnc4)(c4ccc(Cl)cc4Cl)O3)cc2)CC1 (stereo not shown) [Ketoconazole]
IC50 [3]: ~0.3 µg/mL (≈ 0.565 µM)
IC50 [1]: 1.3 ± 0.2 µg/mL (≈ 2.45 µM)

CCCCCCCCCCCCCCCCOP(=O)([O-])OCC[N+](C)(C)C [Miltefosine]
IC50 [3]: > 2 µg/mL
Activity against Leishmania mexicana (IC50 μg/ml) promastigotes ([3]; promastigote stage): >2 µg/mL
IC50 [1]: 1.42 ± 0.14 µg/mL (≈ 3.48 µM)

CC[C@H](CO)Nc1nc(NCc2ccccc2)c2ncn(C(C)C)c2n1 [Roscovitine]
IC50 (Fibroblast (skin); [13]): > 25 µM
IC50 (Fibroblast (skin); [14]): > 25 µM

CC(=O)O[C@H]1C(=O)[C@@]2(C)[C@H]([C@H](OC(=O)c3ccccc3)[C@]3(O)C[C@H](OC(=O)[C@H](O)[C@@H](NC(=O)c4ccccc4)c4ccccc4)C(C)=C1C3(C)C)[C@]1(OC(C)=O)CO[C@@H]1C[C@@H]2O [Taxol]
IC50 (Caco (colon); [4]): 0.01 µM
IC50 (Caco (colon); [5]): < 0.008 µM
IC50 (Fibroblast (skin); [13]): > 25 µM
IC50 (Fibroblast (skin); [14]): > 25 µM
IC50 (Sub7 (liver); [6]): 0.01 µM
IC50 (Sub7 (liver); [7]): < 0.01 µM
